One assay deals with T1, CFTR ΔF508 mutant (Homo sapiens, UniProt P13569, DEL508-508).
T1 construct: expressed in transfected cells; host or cells: CFBE41o- (adenoviral transduction)
Briefly: YFP-halide influx assay for the CFTR-ΔF508 mutation (384 well, FDSS/μCell). The settings on record: CFBE41o- cells, CFTR-ΔF508, 1×D-PBS, fluorescence after 36 seconds. The format is cell-based. The text has this:
The YFP halide influx assay measures the functionality of the cystic fibrosis Transmembrane Conductance regulator (CFTR) channels in the cystic fibrosis bronchial epithelium cell line CFBE41o-. The assay is used to evaluate the capacity of compounds to increase the open probability of existing CFTR channels in the membrane. It makes use of the observation that the yellow fluorescent protein (YFP) variant YFP H148Q, I152L has its fluorescence substantially quenched by halide ions like Cl— and I—. (Galietta, Haggie, & Verkman, 2001) (Nagai, et al., 2002)
For this purpose, CFBE41o-cells are seeded in 384 well plates (3000 CFBE cells/well). One day after seeding, the CFBE cells are transduced with adenoviral vectors that direct the expression of the CFTR ΔF508 mutant and of the YFP reporter. Cells are incubated at 27° C., 5% CO2 for 24 hours so as to allow for the proper folding and migration to the membrane of the CFTR channel or treated with a CFTR modulator during 24 h at 37° C.
The I— induced quenching of fluorescence is recorded […] immediately after injection of I— for 2 min on an FDSS/μCell (Hamamatsu). The capacity of a compound to increase the channel opening is directly correlated with the decrease in fluorescence, and is expressed as (1-(fluorescence after 36 seconds (F)/fluorescence before injection (F0))) and an EC50 can be derived from a (1-F/F0) vs compound concentration plot.

The target in a further assay is T2, CFTR G551D mutant (Homo sapiens, UniProt P13569, G551D).
T2 construct: expressed in transfected cells; host or cells: HEK293 (reverse transfection with plasmid)
Briefly: YFP-halide influx assay for the CFTR-G551D mutation. The format is cell-based. Conditions: HEK293 cells, forskolin 10.67 μM. The text has this: The YFP halide influx assay measures the functionality of the cystic fibrosis Transmembrane Conductance regulator (CFTR) channels. The assay is used to evaluate the capacity of compounds to increase the channel opening of existing mutant CFTR channels in the membrane. It makes use of the observation that the yellow fluorescent protein (YFP) variant YFP H148Q, I152L, […] has its fluorescence substantially quenched by halide ions like Cl^− and I^−. (Galietta, Haggie, & Verkman, 2001)
For this purpose, HEK293-cells are seeded in 96 well plates. During seeding, the cells are reverse-transfected with plasmid vectors that direct the expression of the CFTR G551D mutant and of the YFP reporter. Cells are incubated at 37° C., 5% CO2 for 24 hours so as to allow for sufficient expression of the CFTR protein.
The I^−-induced quenching of fluorescence is recorded immediately after injection of I^− for 7 seconds. The capacity of a compound to increase the channel opening is directly correlated with the decrease in fluorescence, and is expressed as (1-(fluorescence after 7 seconds (F)/fluorescence before injection (F0))) and an EC50 can be derived from a (1-F/F0) vs compound concentration plot.

T1 sequence (P13569 with tags, fused parts or gaps DEL508-508): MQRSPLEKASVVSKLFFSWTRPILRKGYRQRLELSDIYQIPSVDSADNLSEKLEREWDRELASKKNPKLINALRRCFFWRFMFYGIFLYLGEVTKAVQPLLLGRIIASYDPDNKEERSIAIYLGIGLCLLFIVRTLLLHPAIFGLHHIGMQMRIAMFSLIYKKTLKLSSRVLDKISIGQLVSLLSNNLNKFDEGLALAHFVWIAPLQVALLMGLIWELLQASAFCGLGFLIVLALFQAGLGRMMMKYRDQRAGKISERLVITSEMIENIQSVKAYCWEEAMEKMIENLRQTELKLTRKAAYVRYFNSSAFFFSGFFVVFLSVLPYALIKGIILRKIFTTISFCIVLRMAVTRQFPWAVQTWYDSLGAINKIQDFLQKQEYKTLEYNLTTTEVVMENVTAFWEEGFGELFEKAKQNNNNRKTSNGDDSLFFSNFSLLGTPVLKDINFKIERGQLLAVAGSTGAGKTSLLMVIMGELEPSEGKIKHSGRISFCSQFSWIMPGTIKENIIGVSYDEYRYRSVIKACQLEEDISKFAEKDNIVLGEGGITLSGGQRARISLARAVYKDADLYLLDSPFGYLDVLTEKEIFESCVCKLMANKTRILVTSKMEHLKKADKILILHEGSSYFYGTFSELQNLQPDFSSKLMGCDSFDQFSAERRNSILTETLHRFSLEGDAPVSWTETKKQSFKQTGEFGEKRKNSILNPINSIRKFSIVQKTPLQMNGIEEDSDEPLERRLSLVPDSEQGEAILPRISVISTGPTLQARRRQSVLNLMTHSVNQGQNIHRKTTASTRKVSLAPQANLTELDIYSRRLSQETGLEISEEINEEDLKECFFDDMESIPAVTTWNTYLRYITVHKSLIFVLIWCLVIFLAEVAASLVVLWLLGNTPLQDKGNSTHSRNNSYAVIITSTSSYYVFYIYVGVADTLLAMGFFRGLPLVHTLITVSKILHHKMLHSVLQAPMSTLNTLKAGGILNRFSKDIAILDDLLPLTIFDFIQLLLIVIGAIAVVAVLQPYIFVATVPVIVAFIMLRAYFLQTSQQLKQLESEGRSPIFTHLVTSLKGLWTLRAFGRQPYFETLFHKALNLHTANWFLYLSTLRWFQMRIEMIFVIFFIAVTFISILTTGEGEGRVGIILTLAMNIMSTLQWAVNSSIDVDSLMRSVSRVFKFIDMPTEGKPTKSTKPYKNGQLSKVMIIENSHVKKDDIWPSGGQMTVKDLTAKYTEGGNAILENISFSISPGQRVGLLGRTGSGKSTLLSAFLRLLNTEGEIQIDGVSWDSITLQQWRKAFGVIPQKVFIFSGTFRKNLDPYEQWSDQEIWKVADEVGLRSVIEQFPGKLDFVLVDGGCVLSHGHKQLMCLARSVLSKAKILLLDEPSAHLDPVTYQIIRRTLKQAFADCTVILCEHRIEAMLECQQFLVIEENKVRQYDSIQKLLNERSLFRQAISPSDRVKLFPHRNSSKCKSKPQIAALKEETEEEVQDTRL
T2 sequence (P13569 whole entry G551D): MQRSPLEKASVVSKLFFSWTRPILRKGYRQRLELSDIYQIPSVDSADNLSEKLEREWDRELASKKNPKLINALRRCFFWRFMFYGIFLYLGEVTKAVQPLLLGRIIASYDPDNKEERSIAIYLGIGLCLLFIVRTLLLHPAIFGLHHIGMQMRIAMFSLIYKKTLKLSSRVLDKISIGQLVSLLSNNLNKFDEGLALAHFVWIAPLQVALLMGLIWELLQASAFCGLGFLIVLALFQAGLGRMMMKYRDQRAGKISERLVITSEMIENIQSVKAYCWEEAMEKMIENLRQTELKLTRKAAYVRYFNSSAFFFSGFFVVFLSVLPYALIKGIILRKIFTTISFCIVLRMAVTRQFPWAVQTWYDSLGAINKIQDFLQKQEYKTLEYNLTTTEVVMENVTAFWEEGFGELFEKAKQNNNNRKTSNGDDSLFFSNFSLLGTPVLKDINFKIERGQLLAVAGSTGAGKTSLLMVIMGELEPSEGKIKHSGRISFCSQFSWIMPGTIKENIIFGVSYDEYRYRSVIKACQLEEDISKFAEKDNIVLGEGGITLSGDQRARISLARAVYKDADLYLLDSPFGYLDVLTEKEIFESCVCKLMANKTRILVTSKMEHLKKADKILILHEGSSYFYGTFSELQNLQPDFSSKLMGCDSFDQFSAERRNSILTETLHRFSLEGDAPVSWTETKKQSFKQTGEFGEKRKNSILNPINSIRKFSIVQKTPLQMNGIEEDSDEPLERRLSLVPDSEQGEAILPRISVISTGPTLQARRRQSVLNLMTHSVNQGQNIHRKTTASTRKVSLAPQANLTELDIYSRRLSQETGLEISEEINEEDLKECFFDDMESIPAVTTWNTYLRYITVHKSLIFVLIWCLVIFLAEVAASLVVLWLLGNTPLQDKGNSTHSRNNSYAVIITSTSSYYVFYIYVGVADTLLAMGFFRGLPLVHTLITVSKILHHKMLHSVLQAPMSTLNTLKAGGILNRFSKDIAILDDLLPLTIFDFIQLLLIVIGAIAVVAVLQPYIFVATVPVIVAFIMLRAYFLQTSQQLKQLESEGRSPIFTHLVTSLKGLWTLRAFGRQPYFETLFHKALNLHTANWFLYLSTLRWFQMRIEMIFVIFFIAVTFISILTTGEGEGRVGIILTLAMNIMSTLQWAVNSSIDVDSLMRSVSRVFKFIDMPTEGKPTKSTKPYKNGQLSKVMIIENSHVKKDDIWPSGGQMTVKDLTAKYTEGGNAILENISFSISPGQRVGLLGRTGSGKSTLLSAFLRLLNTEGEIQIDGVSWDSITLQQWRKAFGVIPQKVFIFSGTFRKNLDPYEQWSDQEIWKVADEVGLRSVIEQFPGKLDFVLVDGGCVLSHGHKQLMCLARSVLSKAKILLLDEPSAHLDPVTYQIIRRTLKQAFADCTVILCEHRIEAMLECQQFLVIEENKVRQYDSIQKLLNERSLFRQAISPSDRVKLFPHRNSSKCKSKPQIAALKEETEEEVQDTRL

Turning to `C[C@@H](O)C(=O)Nc1sc(S(=O)(=O)c2ccc(OC(F)(F)F)cc2)cc1C(N)=O` [Compound 332, 2-[[(2R)-2-hydroxypropanoyl]amino]-5-[4-(trifluoromethoxy)phenyl] sulfonyl-thiophene-3-carboxamide], the EC50 (as a rule, the concentration needed to bring the measured effect to its halfway point) on CFTR ΔF508 mutant was determined as 22.8 nM; on CFTR G551D mutant, 525 nM.

As to `CC(O)C(=O)Nc1sc(S(=O)(=O)c2cc(F)ccc2C(F)(F)F)cc1C(N)=O` (stereo not drawn) [Compound 335, 5-[5-fluoro-2-(trifluoromethyl)phenyl] sulfonyl-2-(2-hydroxypropanoylamino) thiophene-3-carboxamide], the EC50 is 5.7 nM on CFTR ΔF508 mutant and 107 nM at CFTR G551D mutant.

`CC(C)(O)C(=O)Nc1sc(S(=O)(=O)c2cc(F)c(F)cc2Cl)cc1C(N)=O` [Compound 336, 5-(2-Chloro-4,5-difluoro-benzenesulfonyl)-2-(2-hydroxy-2-methyl-propionylamino)-thiophene-3-carboxylic acid amide]: the EC50 on CFTR ΔF508 mutant is 12.2 nM; on CFTR G551D mutant, 872 nM.

Turning to `CC(C)(O)C(=O)Nc1sc(S(=O)(=O)c2cc(F)ccc2CC(F)(F)F)cc1C(N)=O` [Compound 338, 5-[5-fluoro-2-(2,2,2-trifluoroethyl)phenyl]sulfonyl-2-[(2-hydroxy-2-methyl-propanoyl)amino] thiophene-3-carboxamide], the EC50 at CFTR ΔF508 mutant is 5.4 nM; at CFTR G551D mutant it was 859 nM.

`NC(=O)c1cc(S(=O)(=O)c2cc(F)ccc2Cl)sc1NC(=O)CO` [Compound 339, 5-(2-Chloro-5-fluoro-benzensulfonyl)-2-(2-hydroxy-acetylamino)-thiophene-3-carboxylic acid amide]: the EC50 at CFTR ΔF508 mutant was 8.1 nM; on CFTR G551D mutant, 1750 nM.

On to `NC(=O)c1cc(S(=O)(=O)c2cc(F)ccc2CC(F)(F)F)sc1NC(=O)CO` [Compound 340, 5-[5-Fluoro-2-(2,2,2-trifluoro-ethyl)-benzenesulfonyl]-2-(2-hdyroxy-acetylamino)-thiophene-3-carboxylic acid amide], for which the values for the EC50 on CFTR ΔF508 mutant and on CFTR G551D mutant were 8 nM and 478 nM, respectively.

As for `CC(C)C(O)C(=O)Nc1sc(S(=O)(=O)c2ccc(F)cc2)cc1C(N)=O` (stereo not drawn) [Compound 341, 5-(4-fluorophenyl)sulfonyl-2-[(2-hydroxy-3-methyl-butanoyl)amino] thiophene-3-carboxamide], the figures for the EC50 on CFTR ΔF508 mutant and at CFTR G551D mutant were 20.2 nM and 1510 nM, respectively.

For the molecule `CC(C)(C)C(O)C(=O)Nc1sc(S(=O)(=O)c2ccc(F)cc2)cc1C(N)=O` (stereo not drawn) [Compound 342, 5-(4-fluorophenyl)sulfonyl-2-[(2-hydroxy-3,3-dimethyl-butanoyl)amino] thiophene-3-carboxamide], the values for the EC50 on CFTR ΔF508 mutant and on CFTR G551D mutant were 105 nM and 771 nM, respectively.

For the molecule `CC(C)CC(O)C(=O)Nc1sc(S(=O)(=O)c2ccc(F)cc2)cc1C(N)=O` (stereo not drawn) [Compound 343, 5-(4-fluorophenyl)sulfonyl-2-[(2-hydroxy-4-methyl-pentanoyl)amino] thiophene-3-carboxamide], the results for the EC50 at CFTR ΔF508 mutant and at CFTR G551D mutant were 92.4 nM and 1420 nM, respectively.

For the molecule `CC(C)(O)C(=O)Nc1sc(S(=O)(=O)c2ccc(C(F)(F)F)cc2)cc1C(N)=O` [Compound 344, 2-[(2-hydroxy-2-methyl-propanoyl)amino]-5-[4-(trifluoromethyl)phenyl] sulfonyl-thiophene-3-carboxamide], the EC50 was found to be 36 nM on CFTR ΔF508 mutant and 237 nM on CFTR G551D mutant.

As for `CC(C)C(O)C(=O)Nc1sc(S(=O)(=O)c2ccc(OC(F)(F)F)cc2)cc1C(N)=O` (stereo not drawn) [Compound 345, 2-[(2-hydroxy-3-methyl-butanoyl)amino]-5-[4-(trifluoromethoxy)phenyl] sulfonyl-thiophene-3-carboxamide], the EC50 at CFTR ΔF508 mutant was 111 nM; at CFTR G551D mutant, 528 nM.

Consider `CC(C)CC(O)C(=O)Nc1sc(S(=O)(=O)c2ccc(OC(F)(F)F)cc2)cc1C(N)=O` (stereo not drawn) [Compound 346, 2-[(2-hydroxy-4-methyl-pentanoyl)amino]-5-[4-(trifluoromethoxy)phenyl] sulfonyl-thiophene-3-carboxamide], for which the EC50 came to 470 nM on CFTR ΔF508 mutant and 682 nM at CFTR G551D mutant.

Turning to `CC(C)(C)C(O)C(=O)Nc1sc(S(=O)(=O)c2ccc(OC(F)(F)F)cc2)cc1C(N)=O` (stereo not drawn) [Compound 349, 2-[(2-hydroxy-3,3-dimethyl-butanoyl)amino]-5-[4-(trifluoromethoxy)phenyl] sulfonyl-thiophene-3-carboxamide], the EC50 turned out to be 343 nM on CFTR ΔF508 mutant and 931 nM at CFTR G551D mutant.

In the case of `CC(CO)C(=O)Nc1sc(S(=O)(=O)c2ccc(OC(F)(F)F)cc2)cc1C(N)=O` (stereo not drawn) [Compound 350, 2-[(3-hydroxy-2-methyl-propanoyl)amino]-5-[4-(trifluoromethoxy)phenyl] sulfonyl-thiophene-3-carboxamide], the concentration for a half-maximal effect (EC50) stood at 39 nM at CFTR ΔF508 mutant and 668 nM at CFTR G551D mutant.

Consider `CC(CO)C(=O)Nc1sc(S(=O)(=O)c2cc(F)ccc2OC(F)(F)F)cc1C(N)=O` (stereo not drawn) [Compound 351, 5-[5-fluoro-2-(trifluoromethoxy)phenyl] sulfonyl-2-[(3-hydroxy-2-methyl-propanoyl)amino] thiophene-3-carboxamide], for which the concentration giving a half-maximal response (EC50) was 3 nM at CFTR ΔF508 mutant and 37.3 nM at CFTR G551D mutant.

As to `C[C@H](O)C(=O)Nc1sc(S(=O)(=O)c2c(Cl)cc(F)cc2Cl)cc1C(N)=O` [Compound 355, 5-(2,6-dichloro-4-fluoro-phenyl)sulfonyl-2-[[(2S)-2-hydroxypropanoyl]amino] thiophene-3-carboxamide], the EC50 was 5.4 nM at CFTR ΔF508 mutant and 942 nM on CFTR G551D mutant.

With `CC(C)[C@H](O)C(=O)Nc1sc(S(=O)(=O)c2ccc(F)cc2C(F)(F)F)cc1C(N)=O` [Compound 356, 5-[4-fluoro-2-(trifluoromethyl)phenyl] sulfonyl-2-[[(2S)-2-hydroxy-3-methyl-butanoyl]amino] thiophene-3-carboxamide], the EC50 was 17.2 nM on CFTR ΔF508 mutant and 502 nM on CFTR G551D mutant.

Consider `NC(=O)c1cc(S(=O)(=O)c2ccc(OC(F)(F)F)cc2)sc1NC(=O)C1(CO)CC1` [Compound 357, 2-[[1-(hydroxymethyl)cyclopropanecarbonyl]amino]-5-[4-(trifluoromethoxy)phenyl] sulfonyl-thiophene-3-carboxamide], for which the values for the EC50 at CFTR ΔF508 mutant and on CFTR G551D mutant were 29.7 nM and 301 nM, respectively.

With `CC(C)(O)C(=O)Nc1sc(S(=O)(=O)c2ccc(Cl)cc2)cc1C(N)=O` [Compound 358, 5-(4-chlorophenyl)sulfonyl-2-[(2-hydroxy-2-methyl-propanoyl)amino] thiophene-3-carboxamide], the EC50 at CFTR ΔF508 mutant turned out to be 110 nM; on CFTR G551D mutant it was 2680 nM.

`CC(CO)C(=O)Nc1sc(S(=O)(=O)c2ccc(F)cc2C(F)(F)F)cc1C(N)=O` (stereo not drawn) [Compound 359, 5-[4-fluoro-2-(trifluoromethyl)phenyl] sulfonyl-2-[(3-hydroxy-2-methyl-propanoyl)amino] thiophene-3-carboxamide]: the EC50 on CFTR ΔF508 mutant came out at 9.63 nM; on CFTR G551D mutant it was 2060 nM.

Regarding `CC(C)[C@H](O)C(=O)Nc1sc(S(=O)(=O)c2ccc(F)cc2Cl)cc1C(N)=O` [Compound 361, 5-(2-chloro-4-fluoro-phenyl)sulfonyl-2-[[(2S)-2-hydroxy-3-methyl-butanoyl]amino] thiophene-3-carboxamide], the EC50 was 7.01 nM at CFTR ΔF508 mutant and 280 nM on CFTR G551D mutant.

For `CC(CO)C(=O)Nc1sc(S(=O)(=O)c2ccc(Cl)cc2)cc1C(N)=O` (stereo not drawn) [Compound 362, 5-(4-chlorophenyl)sulfonyl-2-[(3-hydroxy-2-methyl-propanoyl)amino] thiophene-3-carboxamide], the EC50 at CFTR ΔF508 mutant was 22.3 nM; at CFTR G551D mutant, 1230 nM.

Take `NC(=O)c1cc(S(=O)(=O)c2ccc(OC(F)(F)F)cc2)sc1NC(=O)C1(CO)CCC1` [Compound 364, 2-[[1-(hydroxymethyl)cyclobutanecarbonyl]amino]-5-[4-(trifluoromethoxy)phenyl] sulfonyl-thiophene-3-carboxamide]: the values for the EC50 on CFTR ΔF508 mutant and at CFTR G551D mutant were 30.4 nM and 366 nM, respectively.

Regarding `CC(C)(C)[C@H](O)C(=O)Nc1sc(S(=O)(=O)c2ccc(C(F)(F)F)cc2)cc1C(N)=O` [Compound 365, 2-[[(2S)-2-hydroxy-3,3-dimethyl-butanoyl]amino]-5-[4-(trifluoromethyl)phenyl] sulfonyl-thiophene-3-carboxamide], the EC50 was determined as 29.9 nM on CFTR ΔF508 mutant and 306 nM on CFTR G551D mutant.

Values taken from patent publication US9382254B2, “Compounds and pharmaceutical compositions thereof for the treatment of cystic fibrosis” (Galapagos NV, priority 2013, dated 2016).
